Data: patent publication US7238694B2, “Rifamycin imino derivatives effective against drug-resistant microbes” (Cumbre Pharmaceuticals, Inc., priority 2004, dated 2007)
Converted amounts (≈) assume the structure as drawn.

Key:
Type in all cases: cell-based
[1] = test system: Staphylococcus aureus ATCC29213; assay: MIC, microbroth dilution (NCCLS); settings: rifS strain, Cation-Adjusted Mueller-Hinton Broth, 37° C., read-out: MIC
[2] = test system: Staphylococcus aureus ATCC29213 rpoB^H418Y; assay: microbe, parasite or virus in culture; settings: Staphylococcus aureus, ATCC29213; rifR strain; Cation-Adjusted Mueller-Hinton Broth, 37° C.; read-out: MIC
[3] = test system: Staphylococcus aureus MT1222 gyrA^A116E grlB^S80F; assay: microbe, parasite or virus in culture; settings: cipR strain, Cation-Adjusted Mueller-Hinton Broth, 37° C., read-out: MIC
[4] = test system: Staphylococcus epidermidis ATCC12228; assay: MIC, microbroth dilution (NCCLS); settings: rifS strain, Cation-Adjusted Mueller-Hinton Broth, 37° C., read-out: MIC
[5] = test system: Streptococcus pneumoniae ATCC6303; assay: MIC, microbroth dilution (NCCLS); settings: rifS strain, THY Broth with 1 mg/mL catalase, 5% CO2, 37° C., read-out: MIC
[6] = test system: Streptococcus pyogenes ATCC19615; assay: MIC, microbroth dilution (NCCLS); settings: rifS strain, THY Broth, 37° C., read-out: MIC
[7] = test system: Haemophilus influenzae ATCC10211; assay: MIC, microbroth dilution (NCCLS); settings: rifS strain, BHI Broth with NAD and hematin, 37° C., read-out: MIC

Row | Compound | MIC [1] [µg/mL] | MIC [2] [µg/mL] | MIC [3] [µg/mL] | MIC [4] [µg/mL] | MIC [5] [µg/mL] | MIC [6] [µg/mL] | MIC [7] [µg/mL]
1 | CO[C@H]1/C=C/O[C@@]2(C)Oc3c(C)c(O)c4c(c3C2=O)C(=O)C(/C=N/N2CCN(c3nc5c(cc3F)c(=O)c(C(=O)O)cn5-c3ccc(F)cc3F)CC2)=C(NC(=O)/C(C)=C\C=C\[C@H](C)[C@H](O)[C@@H](C)[C@@H](O)[C@@H](C)[C@H](OC(C)=O)[C@@H]1C)C4=O [Example 10, 3-[4-[3-Carboxy-1-(2,4-difluoro-phenyl)-6-fluoro-4-oxo-1,4-dihydro-[1,8]naphthyridine-7-yl]-piperazin-1-ylaminomethylenyl]rifamycin S] | 0.008 to 1 (≈ 0.00711 to 0.889 µM) | 0.06 to 16 (≈ 0.0533 to 14.2 µM) | 0.008 to 0.125 (≈ 0.00711 to 0.111 µM) | 0.008 to 0.1 (≈ 0.00711 to 0.0889 µM) | 0.008 to 0.06 (≈ 0.00711 to 0.0533 µM) | 0.008 to 0.03 (≈ 0.00711 to 0.0267 µM) | 0.125 to 4 (≈ 0.111 to 3.56 µM)
2 | COc1c(N2CC3CCCN(/N=C/C4=C5NC(=O)/C(C)=C\C=C\[C@H](C)[C@H](O)[C@@H](C)[C@@H](O)[C@@H](C)[C@H](OC(C)=O)[C@H](C)[C@@H](OC)/C=C/O[C@@]6(C)Oc7c(C)c(O)c(c(c7C6=O)C4=O)C5=O)C3C2)c(F)cc2c(=O)c(C(=O)O)cn(C3CC3)c12 (stereo partly shown) [Example 13, 3-[6-(3-Carboxy-1-cyclopropyl-6-fluoro-8-methoxy-4-oxo-1,4-dihydroquinolin-7-yl)-octahydropyrrolo[3,4-b]pyridin-1-yl-aminomethylenyl]rifamycin S] | 0.008 to 1 (≈ 0.00713 to 0.891 µM) | 0.06 to 16 (≈ 0.0535 to 14.3 µM) | 0.008 to 0.125 (≈ 0.00713 to 0.111 µM) | 0.008 to 0.1 (≈ 0.00713 to 0.0891 µM) | 0.008 to 0.06 (≈ 0.00713 to 0.0535 µM) | 0.008 to 0.03 (≈ 0.00713 to 0.0267 µM) | 0.125 to 4 (≈ 0.111 to 3.56 µM)
3 | CO[C@H]1/C=C/O[C@@]2(C)Oc3c(C)c(O)c4c(O)c(c(/C=N/N5CCN(c6nc7c(cc6F)c(=O)c(C(=O)O)cn7-c6ccc(F)cc6F)CC5)c(O)c4c3C2=O)NC(=O)/C(C)=C\C=C\[C@H](C)[C@H](O)[C@@H](C)[C@@H](O)[C@@H](C)[C@H](OC(C)=O)[C@@H]1C [Example 14, 3-[4-[3-Carboxy-1-(2,4-difluoro-phenyl)-6-fluoro-4-oxo-1,4-dihydro-[1,8]naphthyridine-7-yl]-piperazin-1-ylaminomethylenyl]rifamycin SV] | 0.008 to 1 (≈ 0.0071 to 0.887 µM) | 0.06 to 16 (≈ 0.0532 to 14.2 µM) | 0.008 to 0.125 (≈ 0.0071 to 0.111 µM) | 0.008 to 0.1 (≈ 0.0071 to 0.0887 µM) | 0.008 to 0.06 (≈ 0.0071 to 0.0532 µM) | 0.008 to 0.03 (≈ 0.0071 to 0.0266 µM) | 0.125 to 4 (≈ 0.111 to 3.55 µM)
4 | CCn1cc(C(=O)O)c(=O)c2cc(F)c(N3CCN(/N=C/c4c5c(O)c6c(O)c(C)c7c(c6c4O)C(=O)[C@@](C)(O/C=C/[C@H](OC)[C@@H](C)[C@@H](OC(C)=O)[C@H](C)[C@H](O)[C@H](C)[C@@H](O)[C@@H](C)/C=C/C=C(/C)C(=O)N5)O7)CC3)cc21 [Example 18, 3-[4-(3-Carboxy-1-ethyl-6-fluoro-4-oxo-1,4-dihydroquinolin-7-yl)-piperazin-1-yl-aminomethylenyl]-rifamycin SV] | 0.008 to 1 (≈ 0.00768 to 0.96 µM) | 0.06 to 16 (≈ 0.0576 to 15.4 µM) | 0.008 to 0.125 (≈ 0.00768 to 0.12 µM) | 0.008 to 0.1 (≈ 0.00768 to 0.096 µM) | 0.008 to 0.06 (≈ 0.00768 to 0.0576 µM) | 0.008 to 0.03 (≈ 0.00768 to 0.0288 µM) | 0.125 to 4 (≈ 0.12 to 3.84 µM)
5 | CCn1cc(C(=O)O)c(=O)c2cc(F)c(N3CCN(/N=C/c4c5c(O)c6c(O)c(C)c7c(c6c4O)C(=O)[C@@](C)(O/C=C/[C@H](OC)[C@@H](C)[C@@H](OC(C)=O)[C@H](C)[C@H](O)[C@H](C)[C@@H](O)[C@@H](C)/C=C/C=C(/C)C(=O)N5)O7)CC3)nc21 [Example 19, 3-[4-(3-Carboxy-1-ethyl-6-fluoro-4-oxo-1,4-dihydro-[1,8]naphthyridine-7-yl)-piperazin-1-yl-aminomethylenyl]-rifamycin SV] | 0.008 to 1 (≈ 0.00767 to 0.959 µM) | 0.06 to 16 (≈ 0.0575 to 15.3 µM) | 0.008 to 0.125 (≈ 0.00767 to 0.12 µM) | 0.008 to 0.1 (≈ 0.00767 to 0.0959 µM) | 0.008 to 0.06 (≈ 0.00767 to 0.0575 µM) | 0.008 to 0.03 (≈ 0.00767 to 0.0288 µM) | 0.125 to 4 (≈ 0.12 to 3.83 µM)
6 | COc1c(N2CCN(/N=C/c3c4c(O)c5c(O)c(C)c6c(c5c3O)C(=O)[C@@](C)(O/C=C/[C@H](OC)[C@@H](C)[C@@H](OC(C)=O)[C@H](C)[C@H](O)[C@H](C)[C@@H](O)[C@@H](C)/C=C/C=C(/C)C(=O)N4)O6)CC2)c(F)cc2c(=O)c(C(=O)O)cn(C3CC3)c12 [Example 20, 3-[4-(3-Carboxy-1-cyclopropyl-6-fluoro-8-methoxy-4-oxo-1,4-dihydroquinolin-7-yl)-piperazin-1-yl-aminomethylenyl]-rifamycin SV] | 0.008 to 1 (≈ 0.00738 to 0.922 µM) | 0.06 to 16 (≈ 0.0553 to 14.8 µM) | 0.008 to 0.125 (≈ 0.00738 to 0.115 µM) | 0.008 to 0.1 (≈ 0.00738 to 0.0922 µM) | 0.008 to 0.06 (≈ 0.00738 to 0.0553 µM) | 0.008 to 0.03 (≈ 0.00738 to 0.0277 µM) | 0.125 to 4 (≈ 0.115 to 3.69 µM)
7 | COc1c(N2CCN(C3CCN(/N=C/c4c5c(O)c6c(O)c(C)c7c(c6c4O)C(=O)[C@@](C)(O/C=C/[C@H](OC)[C@@H](C)[C@@H](OC(C)=O)[C@H](C)[C@H](O)[C@H](C)[C@@H](O)[C@@H](C)/C=C/C=C(/C)C(=O)N5)O7)CC3)CC2)c(F)cc2c(=O)c(C(=O)O)cn(C3CC3)c12 [Example 25, 3-{4-[1-(3-Carboxy-1-cyclopropyl-6-fluoro-8-methoxy-4-oxo-1,4-dihydroquinolin-7-yl)-piperazin-4-yl]-piperidin-1-yl-aminomethylenyl}-rifamycin SV] | 0.008 to 1 (≈ 0.00685 to 0.857 µM) | 0.06 to 16 (≈ 0.0514 to 13.7 µM) | 0.008 to 0.125 (≈ 0.00685 to 0.107 µM) | 0.008 to 0.1 (≈ 0.00685 to 0.0857 µM) | 0.008 to 0.06 (≈ 0.00685 to 0.0514 µM) | 0.008 to 0.03 (≈ 0.00685 to 0.0257 µM) | 0.125 to 4 (≈ 0.107 to 3.43 µM)
